{"source": "patent US7647217B2", "about": "“Structure of the farnesoid X receptor ligand binding domain and methods of use therefor” (The Salk Institute for Biological Studies, priority 2002, dated 2010)", "key": {"[1]": {"system": "IBABP mRNA in HT29-FXRFL cells", "assay": "Northern blot of IBABP mRNA induction in HT29 stable cell lines", "type": "cell-based, human", "details": "for induction of IBABP mRNA in control lines: HT29-BABE or HT29-FXR-AF2 cell lines; for concentration of maximal activation of the IBABP gene / induction of IBABP mRNA: HT29-FXRFL, overnight treatment", "method": "20 μg total RNA was isolated using Trizol (Invitrogen) and used for Northern blot analysis. cDNA probe for human IBABP was prepared and hybridized to the blot. Blots were normalized by β-actin expression.\n(§1) HepG2 or HT29-derived cell lines were typically cultured in medium containing superstripped FBS for 24 hr before the addition of a ligand or DMSO (vehicle) for an additional 24-48 hr. Total RNA was isolated using TRIzol reagent and was resolved (10 μg/lane) on a 1% agarose, 2.2 M formaldehyde gel, transferred to a nylon membrane (Hybond N^+; Amersham Biosciences, Inc.), and cross-linked to the membrane with UV light.\n(§2) cDNA probes were radiolabeled with [α-^32P]dCTP using the highprime labeling kit (Amersham Biosciences, Inc.). Membranes were hybridized using the QuikHyb hybridization solution (Stratagene, La Jolla, Calif.) according to the manufacturer's protocol. Blots were normalized for variations of RNA loading by hybridization to a control probe, either, 18 S ribosomal cDNA, or the ribosomal protein 36B4. The RNA levels were quantitated using a PhosphorImager (ImageQuant software; Molecular Dynamics, Inc., Sunnyvale, Calif.) in addition to being exposed to X-ray film.\nHuman colon cells HT29 (FXR null until differentiated) were infected with retroviral vectors that expressed either FXR constructs and the puromycin-resistant gene or the puromycin-resistant gene alone. Puromycin resistant cells were isolated and pooled cell populations were propagated that harbored either the vector alone (HT29-BABE), overexpressed FXR full length (HT29-FXRFL), a non-functional FXR truncated at the AF2 region (HT29-FXR-AF2), or a constitutively active FXR that has the VP16 activation domain fused N-terminal of the protein (HT29-VP16-FXR). Confirmation of the successful establishment of the different stable cell lines was established via northern blot analysis of FXR message levels in the cells (see FIG. 4A). […]\nThe ability of the novel compounds identified herein to induce IBABP gene expression in this cell system was also examined. Total RNA from HT29 stable cells treated overnight with fexaramine, fexarine and fexarene was probed for IBABP gene expression (see FIG. 4D)."}, "[2]": {"system": "FXR target genes SHP, MRP-2, BSEP and PLTP in HEPG2-FXR cells", "assay": "Northern blot of FXR target genes in HEPG2-FXR cells", "type": "cell-based, human", "details": "for induction of FXR target genes: SHP, MRP-2, BSEP, PLTP; for concentration of maximal activation of FXR target genes: overnight treatment", "method": "20 μg total RNA was isolated using Trizol (Invitrogen) and used for Northern blot analysis. cDNA probes for human PLTP, SHP, MRP-2 and BSEP were prepared and hybridized to the blot. Blots were normalized by 36B4 expression as shown.\nas §1, §2\nTotal RNA was isolated and the expression of the FXR target genes SHP, MRP-2, BSEP and PLTP was measured by Northern blot analysis (see FIG. 4E).\nDifferences in efficacy of target gene induction between the liver and the intestinal cell systems may reflect the ability of the liver hepatocytes to mount a xenobotic response or cell specific permeability to the identified compounds. Modification of the ligands to overcome these effects may be made in order to increase the efficacy of these drugs in liver cell systems."}, "[3]": {"system": "hPPARαγδ", "assay": "GAL4 chimeric NHR cross-reactivity assay", "type": "cell-based, human", "details": "10 μM", "method": "(§3) FIGS. 3A-3E collectively show the results of ligand activation of CV-1 cells co-transfected with a luciferase reporter gene with a variety of receptor expression constructs. […] FIGS. 3C-3E show the results of CV-1 cells transiently transfected with the indicated reporter constructs, treated with either DMSO or 10 μM of the compounds fexaramine (3C), fexarine (3D), fexarene (3E). Reporter activity was normalized to the internal control and the data plotted as fold activation relative to untreated cells. All transfections contained CMX-βgal as an internal control.\n(§4) The expression plasmids pCMX, pCMX-LacZ, pCMX-mFXRFL, pCMX-hRXRFL, pCMX-GALDBD-rFXRLBD and other pCUX-GALDBD-NR LBDs (hRXRα, hPPARαγδ, mPXR, hPXR, hLXRα, HTRβ, hRARβ, mCAR, mERR3 and hVDR) have been described elsewhere (Blumberg et al. (1998). SXR, a novel steroid and xenobiotic-sensing nuclear receptor. Genes Dev. 12(20), 3195-205). The reporter plasmids pMH2004-TK-luc, pTKECRE*6-luc, pTKER-8*2-luc and pMRP-2-luc also have been described elsewhere. The hPLTP-luc promoter was kindly provided by Dr Dennis Dowhan and the hIBABP-luc promoter was created from a plasmid provided by Dr Philippe Besnard.\n(§5) Cell-based transcriptional activation assays using chimeric nuclear hormone receptor (NHR) constructs were established to measure the selectivity of the compounds to FXR relative to other NHRs (Forman et al. (1995). Identification of a nuclear receptor that is activated by farnesol metabolites. Cell 81, 687-693). These assays used fusion proteins with the yeast GAL4 DNA binding domain connected to the ligand-binding domain (LBD) of NHRs. These constructs were co-transfected with a thymidine kinase C minimal promoter reporter vector containing four copies of the GAL4 binding site. Titration experiments were then performed using the identified compounds. […] Addition of RXR had no effect on the activation potential of fexaramine, fexarine, fexarene in this assay.\n(§6) No activity was observed on other chimeric NHR constructs including hRXRα, hPPARαγδ, mPXR, hPXR, hLXRα, hTRβ, hRARβ, mCAR, mERR3 and hVDR (see FIGS. 3C-3E)."}, "[4]": {"molecular_target": "T1, hLXRα (Homo sapiens, UniProt Q13133)", "T1 construct": "expressed in transfected cells; host or cells: CV-1 (monkey)", "T1 sequence (Q13133 209-447 limits assumed)": "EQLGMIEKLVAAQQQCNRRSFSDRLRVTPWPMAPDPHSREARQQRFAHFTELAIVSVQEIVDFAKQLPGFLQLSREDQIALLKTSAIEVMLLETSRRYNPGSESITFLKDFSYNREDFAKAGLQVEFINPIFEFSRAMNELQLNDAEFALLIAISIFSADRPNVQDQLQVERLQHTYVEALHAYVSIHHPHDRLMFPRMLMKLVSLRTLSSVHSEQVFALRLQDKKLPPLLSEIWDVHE", "assay": "GAL4 chimeric NHR cross-reactivity assay", "type": "cell-based", "details": "10 μM", "method": "as §3, §4, §5, §6"}, "[5]": {"molecular_target": "T2, hPXR (Homo sapiens, UniProt O75469)", "T2 construct": "expressed in transfected cells; host or cells: CV-1 (monkey)", "T2 sequence (O75469 146-433 limits assumed)": "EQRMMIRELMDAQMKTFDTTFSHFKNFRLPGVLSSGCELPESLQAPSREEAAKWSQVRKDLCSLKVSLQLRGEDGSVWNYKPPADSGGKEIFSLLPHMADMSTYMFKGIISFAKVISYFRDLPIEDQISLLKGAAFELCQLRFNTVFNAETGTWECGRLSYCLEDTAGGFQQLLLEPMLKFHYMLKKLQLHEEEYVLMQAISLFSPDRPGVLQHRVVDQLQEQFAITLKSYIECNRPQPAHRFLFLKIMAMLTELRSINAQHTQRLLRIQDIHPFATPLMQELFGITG", "assay": "GAL4 chimeric NHR cross-reactivity assay", "type": "cell-based", "details": "10 μM", "method": "as §3, §4, §5, §6"}}, "data": [{"smiles": "CC(C)c1onc(-c2c(Cl)cccc2Cl)c1COc1ccc(/C=C/c2cccc(C(=O)O)c2)c(Cl)c1", "note": "[GW4064, reference compound]", "values": [{"measurement": "induction of IBABP mRNA in control lines", "setting": "[1]", "result": "No induction"}, {"measurement": "concentration of maximal activation of the IBABP gene", "setting": "[1]", "result": 1, "unit": "µM"}, {"measurement": "induction of IBABP mRNA", "setting": "[1]", "result": "robust concentration dependent induction"}]}, {"smiles": "COC(=O)/C=C/c1cccc(N(Cc2ccc(-c3ccc(N(C)C)cc3)cc2)C(=O)C2CCCCC2)c1", "note": "[fexaramine]", "values": [{"measurement": "induction of FXR target genes", "setting": "[2]", "result": "most effective inducer"}, {"measurement": "concentration of maximal activation of FXR target genes", "setting": "[2]", "result": 10, "unit": "µM"}, {"measurement": "activity on chimeric hPPARαγδ constructs", "setting": "[3]", "result": "No activity"}, {"measurement": "induction of IBABP mRNA in control lines", "setting": "[1]", "result": "No induction"}, {"measurement": "concentration of maximal activation of the IBABP gene", "setting": "[1]", "result": 1, "unit": "µM"}, {"measurement": "induction of IBABP mRNA", "setting": "[1]", "result": "induced expression of the IBABP mRNA"}, {"measurement": "activity on chimeric hLXRα construct", "setting": "[4]", "result": "No activity"}]}, {"smiles": "COC(=O)/C=C/c1cccc(N(Cc2ccc(/C=C/c3ccccc3)cc2)C(=O)C2CCCCC2)c1", "note": "[fexarene]", "values": [{"measurement": "induction of FXR target genes", "setting": "[2]", "result": "strong induction"}, {"measurement": "concentration of maximal activation of FXR target genes", "setting": "[2]", "result": 10, "unit": "µM"}, {"measurement": "activity on chimeric hPPARαγδ constructs", "setting": "[3]", "result": "No activity"}, {"measurement": "induction of IBABP mRNA in control lines", "setting": "[1]", "result": "No induction"}, {"measurement": "concentration of maximal activation of the IBABP gene", "setting": "[1]", "result": 1, "unit": "µM"}, {"measurement": "induction of IBABP mRNA", "setting": "[1]", "result": "induced expression of the IBABP mRNA"}, {"measurement": "activity on chimeric hLXRα construct", "setting": "[4]", "result": "No activity"}, {"measurement": "activity on chimeric hPXR construct", "setting": "[5]", "result": "No activity"}]}, {"smiles": "COC(=O)/C=C/c1cccc(N(Cc2ccc(-c3ccc4c(c3)OCO4)cc2)C(=O)C2CCCCC2)c1", "note": "[fexarine]", "values": [{"measurement": "induction of FXR target genes", "setting": "[2]", "result": "strong induction"}, {"measurement": "concentration of maximal activation of FXR target genes", "setting": "[2]", "result": 10, "unit": "µM"}, {"measurement": "activity on chimeric hPPARαγδ constructs", "setting": "[3]", "result": "No activity"}, {"measurement": "induction of IBABP mRNA in control lines", "setting": "[1]", "result": "No induction"}, {"measurement": "concentration of maximal activation of the IBABP gene", "setting": "[1]", "result": 1, "unit": "µM"}, {"measurement": "induction of IBABP mRNA", "setting": "[1]", "result": "induced expression of the IBABP mRNA"}, {"measurement": "activity on chimeric hLXRα construct", "setting": "[4]", "result": "No activity"}, {"measurement": "activity on chimeric hPXR construct", "setting": "[5]", "result": "No activity"}]}]}
